Test results: patent US10981926B2 (Janssen Pharmaceutica NV, priority 2016, dated 2021)

Experiments:
rGABA-gated Cl− channel = test: GABA-Gated Cl Channel Antagonist Radioligand Binding Assay; design: species or system rat; details: 10 μM single point, [35S]-TBPS, cerebral cortex membrane homogenates
Summary of the method: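 Values give percent inhibition of control specific […] (3 nM) binding at a single 10 μM compound concentration. Cerebral cortex membranes, 120 min, 22° C, phosphate buffer pH 7.4 with 500 mM NaCl; 20 μM picrotoxinin sets nonspecific binding; filtration and scintillation read-out.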

[1] = biological target: T1, F876L mutant Androgen Receptor (AR-F876L) (Homo sapiens (Human), UniProt P10275, F877L); test: LNCaP-AR-F876L AG reporter assay (agonist mode); format: cell-based; details: for EC50: agonist mode, pEC50 = −Log10(EC50 in Molar), read-out: LNCaP-AR-F876L AG pEC50 (converted); for Emax: maximum % stimulation (agonist response) over the tested concentration range, read-out: LNCaP-AR-F876L AG MAX % Stim
[2] = biological target: T1, F876L mutant Androgen Receptor (AR-F876L); test: LNCaP-AR-F876L ANT reporter assay (antagonist mode); format: cell-based; details: for IC50: antagonist mode, pIC50 = −Log10(IC50 in Molar), read-out: LNCaP-AR-F876L ANT pIC50 (converted); for Emax: maximum % inhibition of R1881 control response over the tested concentration range, read-out: LNCaP-AR-F876L ANT MAX % Inh
[3] = biological target: T2, wild-type Androgen Receptor (AR-wt) (Homo sapiens (Human), UniProt P10275); test: LNCaP-AR-wt ANT reporter assay (antagonist mode); format: cell-based; details: for IC50: antagonist mode, pIC50 = −Log10(IC50 in Molar), read-out: LNCaP-AR-wt ANT pIC50 (converted); for Emax: maximum % inhibition of R1881 control response over the tested concentration range, read-out: LNCaP-AR-wt ANT MAX % Inh
[4] = biological target: T2, wild-type Androgen Receptor (AR-wt); test: LNCaP-AR-wt AG reporter assay (agonist mode); format: cell-based; details: for EC50: agonist mode, pEC50 = −Log10(EC50 in Molar), read-out: LNCaP-AR-wt AG pEC50 (converted); for Emax: maximum % stimulation (agonist response) over the tested concentration range, read-out: LNCaP-AR-wt AG MAX % Stim

T2 sequence (P10275 whole entry): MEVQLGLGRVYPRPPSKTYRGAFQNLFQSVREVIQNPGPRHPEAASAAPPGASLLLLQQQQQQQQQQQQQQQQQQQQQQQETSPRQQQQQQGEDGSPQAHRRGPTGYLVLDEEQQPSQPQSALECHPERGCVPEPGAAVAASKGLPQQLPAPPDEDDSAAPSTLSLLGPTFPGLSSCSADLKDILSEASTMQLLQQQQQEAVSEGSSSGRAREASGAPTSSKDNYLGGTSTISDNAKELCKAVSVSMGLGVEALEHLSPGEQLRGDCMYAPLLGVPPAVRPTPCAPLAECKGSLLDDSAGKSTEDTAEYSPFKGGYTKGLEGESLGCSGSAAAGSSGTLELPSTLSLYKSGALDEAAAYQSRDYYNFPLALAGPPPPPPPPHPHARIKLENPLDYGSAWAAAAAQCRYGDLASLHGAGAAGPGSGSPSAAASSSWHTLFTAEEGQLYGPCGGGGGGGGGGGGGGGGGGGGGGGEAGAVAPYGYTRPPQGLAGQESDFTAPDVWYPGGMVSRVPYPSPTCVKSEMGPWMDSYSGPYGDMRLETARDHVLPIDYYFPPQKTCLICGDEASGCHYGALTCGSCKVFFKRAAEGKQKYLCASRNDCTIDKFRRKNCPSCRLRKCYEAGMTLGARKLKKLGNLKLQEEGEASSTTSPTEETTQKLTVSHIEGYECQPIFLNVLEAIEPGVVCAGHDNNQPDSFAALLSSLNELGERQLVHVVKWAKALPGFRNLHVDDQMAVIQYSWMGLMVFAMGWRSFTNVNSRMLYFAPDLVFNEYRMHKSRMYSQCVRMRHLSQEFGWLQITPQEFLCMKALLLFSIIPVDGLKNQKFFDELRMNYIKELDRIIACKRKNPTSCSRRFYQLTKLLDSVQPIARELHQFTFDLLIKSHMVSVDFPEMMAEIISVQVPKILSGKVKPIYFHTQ
T1 sequence (P10275 whole entry F877L): as the sequence (P10275 whole entry) above, with F877L counted along it

Compound | rGABA-gated Cl− channel % inh @10 μM (rGABA-gated Cl− channel) [%] | EC50 [1] [nM] | Emax [1] [%] | IC50 [2] [nM] | Emax [2] [%] | IC50 [3] [nM] | Emax [3] [%] | EC50 [4] [nM] | Emax [4] [%]
N#Cc1ncc(N2C(=O)C3(CCC3)N(c3ccc(OC4CCC(N)CC4)cc3)C2=S)cc1C(F)(F)F (stereo not drawn) [Cpd 68, 5-[8-[4-(4-aminocyclohexoxy)phenyl]-5-oxo-7-thioxo-6,8-diazaspiro[3.4]octan-6-yl]-3-(trifluoromethyl)pyridine-2-carbonitrile] | 34.9 | > 15100 | 0.4 | 17.4 | 99.7 | 39.8 | 101 | > 15100 | 0.6
N#Cc1ncc(N2C(=O)C3(CCC3)N(c3ccc(N4CCOCC4)cc3)C2=S)cc1C(F)(F)F [Cpd 69, 5-[8-(4-Morpholinophenyl)-5-oxo-7-thioxo-6,8-diazaspiro[3.4]octan-6-yl]-3-(trifluoromethyl)pyridine-2-carbonitrile] | 77.5 | > 15100 | 0.1 | 69.2 | 98.9 | 115 | 101 | > 15100 | 0.2
COCCN1CCC(Oc2ccc(N3C(=S)N(c4cnc(C#N)c(Cl)c4)C(=O)C34CCC4)cn2)CC1 [Cpd 70, 3-chloro-5-[8-[6-[[1-(2-methoxyethyl)-4-piperidyl]oxy]-3-pyridyl]-5-oxo-7-thioxo-6,8-diazaspiro[3.4]octan-6-yl]pyridine-2-carbonitrile] | 9.2 | > 15100 | 3.6 | 38.9 | 97.1 | 33.9 | 98.8 | > 15100 | 0.8
CC(=O)N1CC(F)(F)CC1COc1ccc(N2C(=S)N(c3cnc(C#N)c(C(F)(F)F)c3)C(=O)C23CCC3)cc1 (stereo not drawn) [Cpd 71, 5-[8-[4-[(1-acetyl-4,4-difluoro-pyrrolidin-2-yl)methoxy]phenyl]-5-oxo-7-thioxo-6,8-diazaspiro[3.4]octan-6-yl]-3-(trifluoromethyl)pyridine-2-carbonitrile] | 82.1 | > 15100 | 0.5 | 178 | 98.3 | 102 | 101 | > 15100 | 0.2
CN1CCC(CNC(=O)c2ccc(N3C(=S)N(c4cnc(C#N)c(C(F)(F)F)c4)C(=O)C34CCC4)cc2)CC1 [Cpd 72, 4-[6-[6-cyano-5-(trifluoromethyl)-3-pyridyl]-5-oxo-7-thioxo-6,8-diazaspiro[3.4]octan-8-yl]-N-[(1-methyl-4-piperidyl)methyl]benzamide] | 20.0 | > 15100 | 0 | 174 | 100 | 275 | 101 | > 15100 | -0.1
CNC(=O)N1CCC(CNC(=O)c2ccc(N3C(=S)N(c4cnc(C#N)c(C(F)(F)F)c4)C(=O)C34CCC4)cc2)CC1 [Cpd 73, 4-[[[4-[6-[6-cyano-5-(trifluoromethyl)-3-pyridyl]-5-oxo-7-thioxo-6,8-diazaspiro[3.4]octan-8-yl]benzoyl]amino]methyl]-N-methyl-piperidine-1-carboxamide] | 80.1 | > 15100 | 0.5 | 224 | 97.6 | 501 | 101 | > 15100 | 1
N#Cc1ncc(N2C(=O)C3(CCC3)N(c3ccc(OCC4CNCCO4)cc3)C2=S)cc1C(F)(F)F (stereo not drawn) [Cpd 74, 5-[8-[4-(morpholin-2-ylmethoxy)phenyl]-5-oxo-7-thioxo-6,8-diazaspiro[3.4]octan-6-yl]-3-(trifluoromethyl)pyridine-2-carbonitrile] | 13.9 | > 15100 | 1.5 | 21.4 | 98.1 | 72.4 | 100 | > 15100 | 0.2
COc1cc(N2C(=O)C3(CCC3)N(c3ccc(OC4CCNCC4)nc3)C2=S)cnc1C#N [Cpd 75, 3-methoxy-5-[5-oxo-8-[6-(4-piperidyloxy)-3-pyridyl]-7-thioxo-6,8-diazaspiro[3.4]octan-6-yl]pyridine-2-carbonitrile] | −32.5 | > 15100 | 0.1 | 89.1 | 101 | 148 | 102 | > 15100 | 0.2
N#Cc1ncc(N2C(=O)C3(CCC3)N(c3ccc(N4CCN(C(=O)N5CCCC5)CC4)cc3)C2=S)cc1C(F)(F)F [Cpd 76, 5-(8-oxo-5-(4-(4-(pyrrolidine-1-carbonyl)piperazin-1-yl)phenyl)-6-thioxo-5,7-diazaspiro[3.4]octan-7-yl)-3-(trifluoromethyl)picolinonitrile] | 85.4 | > 15100 | 2.2 | 141 | 97.5 | 93.3 | 102 | > 15100 | 0.6
N#Cc1ncc(N2C(=O)C3(CCC3)N(c3ccc(OC4CCN(CCF)CC4)cc3)C2=S)cc1C(F)(F)F [Cpd 77, 5-[8-[4-[[1-(2-fluoroethyl)-4-piperidyl]oxy]phenyl]-5-oxo-7-thioxo-6,8-diazaspiro[3.4]octan-6-yl]-3-(trifluoromethyl)pyridine-2-carbonitrile] | 53.8 | > 15100 | 0.3 | 30.9 | 100 | 37.2 | 102 | > 15100 | 0.2
Cc1cc(N2C(=O)C3(CCC3)N(c3ccc(OC4CCN(CCF)CC4)nc3)C2=S)cnc1C#N [Cpd 78, 5-[8-[6-[[1-(2-fluoroethyl)-4-piperidyl]oxy]-3-pyridyl]-5-oxo-7-thioxo-6,8-diazaspiro[3.4]octan-6-yl]-3-methyl-pyridine-2-carbonitrile] | 3.8 | > 15100 | 0 | 22.9 | 100 | 93.3 | 101 | > 15100 | 1.2
N#Cc1ncc(N2C(=O)C3(CCC3)N(c3ccc(OC4CCN(CCO)CC4)nc3)C2=S)cc1Cl [Cpd 79, 3-chloro-5-[8-[6-[[1-(2-hydroxyethyl)-4-piperidyl]oxy]-3-pyridyl]-5-oxo-7-thioxo-6,8-diazaspiro[3.4]octan-6-yl]pyridine-2-carbonitrile] | 11.5 | > 15100 | 1.3 | 8.13 | 98.5 | 6.76 | 101 | > 15100 | 1.2
CNC1CCC(Oc2ccc(N3C(=S)N(c4cnc(C#N)c(C(F)(F)F)c4)C(=O)C34CCC4)cc2)CC1 (stereo not drawn) [Cpd 80, 5-[8-[4-[4-(methylamino)cyclohexoxy]phenyl]-5-oxo-7-thioxo-6,8-diazaspiro[3.4]octan-6-yl]-3-(trifluoromethyl)pyridine-2-carbonitrile] | 33.7 | > 15100 | 0.1 | 11.2 | 100 | 25.1 | 102 | > 15100 | 0.6
CN(C)C1CCC(Oc2ccc(N3C(=S)N(c4cnc(C#N)c(C(F)(F)F)c4)C(=O)C34CCC4)cc2)CC1 (stereo not drawn) [Cpd 81, 5-[8-[4-[4-(dimethylamino)cyclohexoxy]phenyl]-5-oxo-7-thioxo-6,8-diazaspiro[3.4]octan-6-yl]-3-(trifluoromethyl)pyridine-2-carbonitrile] | 28.8 | > 15100 | 0.1 | 17 | 101 | 28.2 | 102 | > 15100 | 0.4
N#Cc1ncc(N2C(=O)C3(CCC3)N(c3ccc(OCCN4CCC5(CCOC5)CC4)cc3)C2=S)cc1C(F)(F)F [Cpd 82, 5-[8-[4-[2-(3-oxa-8-azaspiro[4.5]decan-8-yl)ethoxy]phenyl]-5-oxo-7-thioxo-6,8-diazaspiro[3.4]octan-6-yl]-3-(trifluoromethyl)pyridine-2-carbonitrile] | 36.7 | > 15100 | 0.8 | 100 | 97.5 | 155 | 98.7 | > 15100 | 0.4
